# Reference: ChEMBL document CHEMBL3997847, “Development of a novel near-infrared fluorescent theranostic combretastain A-4 analogue, YK-5-252, to target triple negative breast cancer” (Bioorg Med Chem, 2017)
# The source made the active and inactive calls. No cut-off for these calls is given here.
# Legend:
# [1] = Retention time of the compound at 200 uM in presence of 50 mM GSH by HPLC analysis
# [2] = tested on: MDA-MB-231; experiment: Growth inhibition of human MDA-MB-231 cells after 72 hrs by MTT assay; assay type: cell-based; conditions: MDA-MB-231, 72 h
# [3] = species on record: Homo sapiens; experiment: Inhibition of beta-tubulin polymerization in human MDA-MB-231 cells at 50 nM after 1 hr by NucBlue staining based immunofluorescence microscopic assay; assay type: cell-based
Compound,Retention time [1] [min],GI50 [2] [nM],inhibition [3]
N#CC(C#N)=C1C=C(/C=C/c2ccc(N)cc2)Oc2ccccc21,8.6,,
COc1ccc(/C=C\c2cc(OC)c(OC)c(OC)c2)cc1O [COMBRETASTATIN A4],6.8,2.81,Active
